In US10940150B2, “Thymine derivatives and quinazoline-dione derivatives for the inhibition of HSP27” (TECHNISCHE UNIVERSITAET DRESDEN, priority 2014, dated 2021):

Assays:
HSP27 [1] = molecular target: T1, HSP27 (Homo sapiens, UniProt P04792); assay: Spectrophotometric protein aggregation assay (citrate synthase, HSP27 chaperone function); format: biochemical; settings: for effect on chaperone function of HSP27 (CS aggregation) relative to 750 μmol/L BVDU: 43° C., 500 nm
Experimental: FIG. 1: a spectrophotometric protein aggregation assay at 43° C., a wavelength of 500 nm and a concentrations of the proteins: 1.44 μmol/L citrate synthase (CS), 481 nmol/L HSP27 (HSP) in a 40 mmol/L HEPES buffer (pH 7.4) during treatment with 14 or 28 μmol/L 2-(3-trichlorovinylphenylamino)-1,9-dihydropurin-6-one (CS+HSP+test substance no. 2), with 750 μmol/L BVDU (CS+HSP+BVDU) and without (CS+HSP; reference);
To measure the efficacy of the purine derivatives according to the invention, robust experiments for the chaperone function of the HSP27 protein were performed:
A known client protein (=substrate on which HSP27 acts as a chaperone) of HSP27 is citrate synthase. Citrate synthase is denatured when the temperature increases to 43° C. This heat denaturation is prevented or delayed by the presence of HSP27 [Jakob U, 1993]. By adding the novel active ingredients, their efficacy can thus be measured through the inhibition of the HSP27 chaperone function.
To determine the activity (i.e. the effect on the aggregation behaviour of the citrate synthase (CS) after thermal incubation) of 2-(3-trichlorovinylphenylamino)-1,9-dihydropurin-6-one in comparison to BVDU, four different batches containing 1.44 μmol/L CS, 481 nmol/L HSP27 (HSP) in a 40 mmol/L HEPES buffer (pH 7.4) were prepared and BVDU (750 μmol/L) or various concentrations of 2-(3-trichlorovinylphenylamino)-1,9-dihydropurin-6-one (14 μmol/L; 28 μmol/L) were added. The samples were then incubated at 43° C. and the aggregation behaviour of the CS was […] in a spectrometer (PerkinElmer LS55, PerkinElmer Inc.) at a wavelength of 500 nm.
It can be seen from FIG. 1 that the protein citrate synthase (graph CS alone) is denatured by increasing the temperature to 43° C. and forms aggregates. The aggregation is measured in the spectrometer at 500 nm (light scattering by protein aggregates). The presence of HSP27 (HSP) counteracts the aggregation (cf. graph, CS+HSP). Since the addition of the test substances (BVDU and 2-(3-trichlorovinylphenylamino)-1,9-dihydropurin-6-one) inhibits the chaperone function of HSP27, the activity of the respective test substance can be determined by measuring the aggregation behaviour of the CS.

HSP27 [2] = molecular target: T1, HSP27; assay: Capillary electrophoresis of heat-denatured citrate synthase protein precipitates; format: biochemical; settings: for times higher activity than BVDU for the inhibition of the HSP27 protein / Efficacy compared with BVDU: 10 μmol/L vs 750 μmol/L BVDU; for Rel. quantity of protein prec. CS: 10 μmol/L; for BVDU equivalent dose: based on 100 mg BVDU
Experimental: (§1) Since the heat-denatured protein aggregates of the citrate synthase from Example 1 are not water-soluble, these can be separated completely from the supernatant by means of centrifugation at room temperature at 16,000×g, 10 min. By using capillary electrophoresis, the compositions of the separated precipitates can be shown and quantified. The relative quantity of protein of precipitated citrate synthase serves as a measure of the efficacy of the test substances.
(§2) In each case, 481 nmol/L HSP27 and 1.44 μmol/L citrate synthase in 40 mmol/L HEPES buffer, pH 7.4, were employed. The relative quantity of protein of the precipitated citrate synthase in each case was normalized using a defined quantity of BSA as internal standard. The relative quantity of protein that precipitated when using 750 μmol/L BVDU was set at 1. The other test substances (2 representatives of phenothiazine derivatives of general formula (V), 2 representatives of purine derivatives of formula (I) or (II)) were each employed at a concentration of 10 μmol/L.
as §1, with “Example 2” for “Example 1”
as §2, with “nM” for “nmol/L”, “thymine” for “purine”, “were” for “were each”, “μmol/L in each case.” for “μmol/L.”
Otherwise, the experiments were performed as described above: […]

RPMI-8226 cells [3] = assay: Development of resistance to bortezomib in RPMI-8226 cells; format: cell-based
Experimental: The cell line RPMI-8226 (DMSZ 402) is a “multiple myeloma” cell line and was chosen because bortezomib is employed as a standard therapy for multiple myeloma. RPMI-8226 cells respond to bortezomib, express HSP27 and develop resistance to Velcade. RPMI-8226 cells were seeded at a cell count of 100,000 cells/ml in each case and regularly passaged. […] In contrast, for RPMI 8226 cells that were treated with 30 μmol/L BVDU, a final cell count of 160,000 cells/ml was detected whereas the final cell count for the culture without the addition of an HSP27 inhibitor amounted to 350,000 cells/ml. As a control, RPMI 8226 cells were treated with the respective test substances alone, FIG. 4b.

RPMI-8226 cells [4] = assay: as above; format: cell-based; remark: listed apart in the source
U937 cells = assay: Development of resistance to bortezomib in U937 cells; format: cell-based; settings: bortezomib 0.1-0.5 ng/ml + 0.75 μmol/L test substance (FIG. 11a)
Experimental: For this purpose, U937 cells (histiocytic lymphoma) were cultured in DMEM culture medium (+10% FCS) at 37° C., 5% CO2 in an H2O-saturated atmosphere. 100,000 cells/ml were seeded and incubated with the cytostatic agent bortezomib (0.1 ng/ml) and the respective test substance (dosage in the current experiment: 1 μM/L acepromazine). The reference substance, BVDU, was employed at a concentration of 30 μM/L. The cells were in each case passaged before the cell count reached 1,000,000 cells/ml. At each passage, 100,000 cells/ml were again seeded and the dose of the cytostatic agent bortezomib was increased stepwise (0.1 ng/mL or 0.05 ng/mL). The concentration of the test substances remained constant. As a result of the stepwise increase in the dosage of the cytostatic agent, resistance developed in the U937 cells. The development of resistance is prevented or inhibited in the case of a positively tested HSP27 inhibitor. The experiments from Example 6 were repeated in the same way, wherein U937 cells (histiocytic lymphoma) are cultured in DMEM culture medium (+10% FCS) at 37° C., 5% CO2 in an H2O-saturated atmosphere. 100,000 cells/ml were seeded and incubated with an initial concentration of 0.2 ng/ml of the cytostatic agent bortezomib and both without an inhibitor and with acepromazine as an HSP27 inhibitor at a concentration of 1 μM/L. The reference substance, BVDU, was employed at a concentration of 30 μM/L. The cells were passaged in each case before the cell count reached 1,000,000 cells/ml. At each passage, 100,000 cells/ml were again seeded and the dose of the cytostatic agent bortezomib was increased stepwise by 0.1 ng/mL. The concentration of the test substance and the reference substance remained constant. As a result of the stepwise increase in the dosage of the cytostatic agent, resistance developed in the U937 cells. The development of resistance is prevented or inhibited in the case of a positively tested HSP27 inhibitor. The cell line U-937 is a histiocytic lymphoma (DSMZ ACC 5). This cell line also responds to treatment with bortezomib, expresses HSP27 and develops resistance to bortezomib. Bortezomib is not the standard therapy for this lymphoma, but is being discussed as a possible therapeutic agent. U-937 cells were seeded with a cell count of 100,000 cells/ml in each case and regularly passaged. […] At the end of the experiment, 70,000 living cells per ml medium could be detected. For the treatment with 30 μmol/L BVDU, a final cell count of 250,000 cells/ml was detected whereas the final cell count in the culture without the addition of an HSP27 inhibitor amounted to 450,000 cells/ml. As a control, U-937 cells were treated with the respective test substances alone, FIG. 10b.

[5] = 43° C. for 120 minutes (Table 1)
[6] = 43° C. for 120 minutes, relative to 750 μmol/L BVDU = 1 (Table 1)
[7] = 43° C. for 120 minutes (Table 2)
[8] = 43° C. for 120 minutes, relative to 750 μmol/L BVDU = 1 (Table 2)
[9] = 43° C. for 70 minutes (Table 3)
[10] = 43° C. for 70 minutes, relative to 750 μmol/L BVDU = 1 (Table 3)

T1 sequence (P04792 whole entry): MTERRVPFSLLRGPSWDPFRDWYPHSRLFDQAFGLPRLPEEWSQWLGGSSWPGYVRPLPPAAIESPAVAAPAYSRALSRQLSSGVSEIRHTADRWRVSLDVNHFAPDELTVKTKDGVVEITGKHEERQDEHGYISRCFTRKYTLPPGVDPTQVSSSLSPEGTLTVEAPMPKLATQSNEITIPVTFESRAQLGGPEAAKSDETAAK

Row | times higher activity than BVDU for the inhibition of the HSP27 protein (HSP27 [2]; 43° C. for 120 minutes) | Efficacy compared with BVDU (HSP27 [2]; [5]) | Rel. quantity of protein prec. CS (HSP27 [2]; [6]) | BVDU equivalent dose (HSP27 [2]) | Efficacy compared with BVDU (HSP27 [2]; [7]) | Rel. quantity of protein prec. CS (HSP27 [2]; [8]) | Efficacy compared with BVDU (HSP27 [2]; [9]) | Rel. quantity of protein prec. CS (HSP27 [2]; [10]) | SMILES | also measured
1 | 53 times | 53.25 x | 0.71 | less than 1.9 mg |  |  |  |  | O=c1[nH]c(Nc2cccc(C(Cl)=C(Cl)Cl)c2)nc2[nH]cnc12 [2-(3-trichlorovinylphenylamino)-1,9-dihydropurin-6-one] | effect on chaperone function of HSP27 (CS aggregation) relative to 750 μmol/L BVDU (HSP27 [1]; 14 μmol/L): comparable effect; effect on chaperone function of HSP27 (CS aggregation) relative to 750 μmol/L BVDU (HSP27 [1]; 28 μmol/L): significantly more pronounced effect; BVDU equivalent dose (HSP27 [1]; based on 100 mg BVDU): less than 1.9 mg; development of resistance to the cytostatic agent bortezomib (RPMI-8226 cells [3]; bortezomib 0.1-0.3 ng/ml + 1 μmol/L test substance (FIG. 7a)): significantly inhibited; living cells at the end of the experiment (RPMI-8226 cells [4]; bortezomib 0.1-0.3 ng/ml + 1 μmol/L test substance (FIG. 7a), without HSP27 inhibitor 950,000 cells/ml): 270,000 living cells per ml medium
2 | 69 times | 69.0 x | 0.92 | 1.4 mg |  |  |  |  | CCCCc1ccc(Nc2nc3c(ncn3COCCO)c(=O)[nH]2)cc1 [2-(4-butylphenylamino)-9-(2-hydroxyethoxymethyl)-1,9-dihydropurin-6-one] | development of resistance to the cytostatic agent bortezomib (U937 cells): significantly inhibited; living cells at the end of the experiment (U937 cells; without HSP27 inhibitor 450,000 cells/ml): 30,000 living cells per ml medium; development of resistance to the cytostatic agent bortezomib (RPMI-8226 cells [4]; bortezomib 0.1-0.3 ng/ml + 1 μM/L test substance (FIG. 6a)): significantly inhibited; living cells at the end of the experiment (RPMI-8226 cells [4]; bortezomib 0.1-0.3 ng/ml + 1 μM/L test substance (FIG. 6a), without HSP27 inhibitor 950,000 cells/ml): 240,000 living cells per ml medium
3 | 61 times |  |  | 1.6 mg | 60.75 x | 0.81 |  |  | Cc1cn(CC=CCNC(=O)Cc2ccc(-c3ccccc3)cc2)c(=O)[nH]c1=O [2-biphenyl-4-yl-N-[4-(5-methyl-2,4-dioxo-3,4-dihydro-2H-pyrimidin-1-yl)-but-2-enyl]-acetamide] | development of resistance to the cytostatic agent bortezomib (RPMI-8226 cells [4]; bortezomib 0.075-0.275 ng/ml + 1 μmol/L test substance (FIG. 9a)): significantly inhibited; living cells at the end of the experiment (RPMI-8226 cells [4]; bortezomib 0.075-0.275 ng/ml + 1 μmol/L test substance (FIG. 9a), without HSP27 inhibitor 510,000 cells/ml): 380,000 living cells per ml medium
4 | 49 times |  |  | less than 2 mg | 48.75 x | 0.65 |  |  | Cc1cn(CC=CCNC(=O)C2c3ccccc3Oc3ccccc32)c(=O)[nH]c1=O [9H-xanthene-9-carboxylic acid [4-(5-methyl-2,4-dioxo-3,4-dihydro-2H-pyrimidin-1-yl)-but-2-enyl]amide] | development of resistance to the cytostatic agent bortezomib (RPMI-8226 cells [3]; bortezomib 0.075-0.275 ng/ml + 1 μmol/L test substance (FIG. 8a)): significantly inhibited; living cells at the end of the experiment (RPMI-8226 cells [4]; bortezomib 0.075-0.275 ng/ml + 1 μmol/L test substance (FIG. 8a), without HSP27 inhibitor 510,000 cells/ml): 290,000 living cells per ml medium
5 |  |  |  |  |  |  | 64.31 x | 0.86 | Cc1cn(C/C=C\CNC(=O)C2c3ccccc3-c3ccccc32)c(=O)[nH]c1=O [N-[(2Z)-4-(5-Methyl-2,4-dioxo-3H-pyrimidin-1-yl)but-2-en-1-yl]-9H-fluorene-9-carboxamide] | 
6 |  |  |  |  |  |  | 58.73 x | 0.78 | Cc1cn(C/C=C\CNC(=O)c2cccc3ccccc23)c(=O)[nH]c1=O [N-[(2Z)-4-(5-Methyl-2,4-dioxo-3H-pyrimidin-1-yl)but-2-en-1-yl]naphthalene-1-carboxamide] | 
